Measured values from patent EP4755403A1, “ANTI-PSMA ANTIBODY-DRUG CONJUGATE AND PHARMACEUTICAL USE THEREOF” (Jiangsu Hengrui Pharmaceuticals Co., Ltd., priority 2023, dated 2025).

Legend:
Experiment in all cases: Cell killing activity of ADC molecules (CellTiter-Glo)
Format in all cases: cell-based, human
Settings in all cases: 5 days
[1] = test system: 22RV1 cells
Protocol: (§1) LNCaP (ATCC, CRL-1740), 22RV1 (ATCC, CRL-2505), and PC-3 (ATCC, CRL-1435) cells were digested with trypsin, neutralized with a fresh medium, centrifuged at 1000 rpm, and then resuspended in a medium. After the cells were counted, the density of the cell suspensions was adjusted to […], and the cells were plated onto a 96-well plate. The adjusted cell suspension (135 µL) was added to each well with […]. Only the middle 60 wells were used for plating, and six wells in the twelfth column were taken as pure medium controls without cells. An equal volume of PBS was added to the other wells. The cells were incubated at 37 °C with 5% CO2 for 16 h.
(§2) Then 20 µL of the dilution was added to the cell plate described above, and the plate was incubated in an incubator (37 °C, 5% CO2) for 5 days. […] Subsequently, 9-point serial dilutions at a 1:3 ratio were performed with PBS. Then 1 µL of the dilution was added to 20 µL of RPMI-1640, and the mixture was transferred to a 96-well cell culture plate. The plate was incubated in an incubator (37 °C, 5% CO2) for 5 days. In the 96-well cell culture plate, 80 µL of the CellTiter-Glo reagent was added to each well, and the plate was left to stand in the dark at room temperature for 10-15 min. The chemiluminescence signal values were read on Victor3, and the data were processed using GraphPad software.
(§3) On the fifth day, the culture plate was taken out and allowed to return to room temperature. The CellTiter-Glo assay solution (75 µL) was added to each well, and the plate was left to stand in the dark at room temperature for 10 min. A Backseal membrane was attached to the bottom of the cell culture plate. The plate was placed on a microplate reader Victor 3, and luminescence signal values were read. Curve fitting was performed according to the log values of concentrations of the test compounds to the corresponding signal values using Graphpad Prism software, and IC50 values were calculated. The maximum value of killing was defined as the maximum killing rate (Imax) of the compound. The killing rate was calculated as follows: [formula]

[2] = test system: LNCaP cells
Protocol: as §1, §2, §3

[3] = test system: PC-3 cells
Protocol: as §1, §2, §3

[4] = Homo sapiens, 120 h, read-out: IC50 (killing effect)

SMILES: CC[C@@]1(O)C(=O)OCc2c1cc1n(c2=O)Cc2c-1nc1cc(F)c(C)c3c1c2[C@@H](NC(=O)[C@H](O)C1CC1)CC3 [Compound 2-B]
- Imax (maximum killing rate) [1]: 98.07%
- IC50 [1, 4]: 0.534 nM
- Imax (maximum killing rate) [2]: 97.13%
- IC50 [2, 4]: 0.535 nM
- Imax (maximum killing rate) [3]: 92.78%
- IC50 [3, 4]: 1.54 nM
